Where two headings read alike, the source gives them in different places.
Experiments:
S. aureus [1] = test: MIC of S. aureus in humans (description); assay type: cell-based; details: Staphylococcus aureus
WT isolates [2] = test: MIC with 10% human serum or adjusted medium pH; assay type: cell-based
Experimental: (§1) CLSI broth microdilution (BMD) and anaerobic agar dilution (AD) methods were performed. Modifications of standard test methods included adding 10% human serum, adjusting the medium pH to 5, 6, and 8, and synergy was assessed by the checkerboard method.

[3] = tested on: E. brevis, M. catarrhalis and N. meningitidis; test: CLSI MIC, spectrum study; assay type: cell-based
Experimental: as §1

GN species = test: CLSI MIC, spectrum study; assay type: cell-based; details: all GN except E. brevis, M. catarrhalis, N. meningitidis
Experimental: as §1

WT isolates [4] = test: Single-step mutational rates to resistance; assay type: cell-based
S. aureus [5] = test: Reference broth microdilution susceptibility testing (CLSI M07-A8), Canadian isolates; assay type: cell-based; details: for number of isolates inhibited: Staphylococcus aureus; for R rate: overall S. aureus population
Text: Methods: To determine a contemporary susceptibility (S) spectrum pattern, 153 GP isolates (123 S. aureus, 15 coagulase-negative staphylococci [CoNS] and 15 S. pyogenes [SPYO]) were collected from 5 Canadian medical centers between 2001 and 2006.

[6] = cited from earlier work
[7] = tested on: methicillin-resistant S. aureus (MRSA) strain USA 300; test: Hollow fiber pharmacodynamic model, resistance potential; assay type: cell-based; details: 600 mg q12h
Experimental: A hollow fiber model was used to evaluate CEM-102 resistance potential in methicillin-resistant S. aureus (MRSA) strain USA 300 (Network of Antimicrobial Resistance in Staphylococcus aureus (NARSA), Chantilly, Va.). USA 300 is a highly virulent strain of MRSA and is the most common community-associated MRSA isolate in the USA. MIC values were determined in accordance with Clinical and Laboratory Standards Institute (CLSI).
The hollow fiber model comprised a two-compartment hollow fiber model (Louie et al. Antimicrob Agents Chemother 52:2486-2496(2008)) consisting of a volume of 15 mL in the central compartment, with multiple ports for the removal of broth, delivery of antibiotics, and collection of bacterial and antimicrobial samples. […] All experiments were performed in duplicate.
Hollow fibers contain 15 ml of media was prepared and inoculated with 10^6 colony forming units (CFU)/mL USA 300 bacteria. One of three different dosing regimens of […] was then applied to the fibers: (1) […] q12h; (2) 1200 mg/ml×2, followed by […], q12h; (3) 1500 mg/ml×2, followed by […], q12h.

[8] = tested on: Gram-positive (GP) species; test: CLSI broth microdilution / anaerobic agar dilution MIC, spectrum study; assay type: cell-based; details: all GP isolates
Experimental: as §1

WT isolates [9] = test: Synergy by the checkerboard method; assay type: cell-based; details: FA/co-drug combination, count
Experimental: as §1

[10] = tested on: 217 S. aureus Canadian isolates; assay type: cell-based; details: Canadian S. aureus isolates, comparators
Experimental: as §1

For `CC(=O)O[C@H]1C[C@@]2(C)[C@@H](C[C@@H](O)[C@H]3[C@@]4(C)CC[C@@H](O)[C@@H](C)[C@@H]4CC[C@@]32C)/C1=C(\CCC=C(C)C)C(=O)O` [FA, Fusidic acid], the MIC (S. aureus [1]) was 2.5 µg/mL, the “increase in MIC results” value (WT isolates [2]; 10% serum added) was 4 fold and the “effect of lower media pH on protein binding effects” value (WT isolates [2]; medium pH 5.0-6.0) was “decreased negative protein binding effects”. For the same compound, the MIC [3] was 0.12 to 0.5 µg/mL, the MIC (GN species) was no less than 2 µg/mL and the single-step mutational rate (WT isolates [4]; 4×MIC) was 1.2×10^−6. For the same compound, the single-step mutational rate (WT isolates [4]; 16×MIC) was 9.8×10^−8, the number of isolates inhibited (S. aureus [5]; years tested 2001-2002, read-out: No. inhibited at MIC (μg/mL) of: 0.06) was 8 µg/mL and the number of isolates inhibited (S. aureus [5]; years tested 2001-2002, read-out: No. inhibited at MIC (μg/mL) of: 0.12) was 29 µg/mL. It also gave a number of isolates inhibited (S. aureus [5]; years tested 2001-2002, read-out: No. inhibited at MIC (μg/mL) of: 0.25) of 1 µg/mL, a number of isolates inhibited (S. aureus [5]; years tested 2001-2002, read-out: No. inhibited at MIC (μg/mL) of: ≧2) of 2 µg/mL and a number of isolates inhibited (S. aureus [5]; years tested 2003-2004, read-out: No. inhibited at MIC (μg/mL) of: 0.06) of 6 µg/mL. For the same compound, the number of isolates inhibited (S. aureus [5]; years tested 2003-2004, read-out: No. inhibited at MIC (μg/mL) of: 0.12) was 33 µg/mL, the number of isolates inhibited (S. aureus [5]; years tested 2003-2004, read-out: No. inhibited at MIC (μg/mL) of: ≧2) was 3 µg/mL and the number of isolates inhibited (S. aureus [5]; years tested 2005-2006, read-out: No. inhibited at MIC (μg/mL) of: 0.06) was 2 µg/mL. The number of isolates inhibited (S. aureus [5]; years tested 2005-2006, read-out: No. inhibited at MIC (μg/mL) of: 0.12) was 32 µg/mL, the number of isolates inhibited (S. aureus [5]; years tested 2005-2006, read-out: No. inhibited at MIC (μg/mL) of: 0.25) was 2 µg/mL and the number of isolates inhibited (S. aureus [5]; years tested 2005-2006, read-out: No. inhibited at MIC (μg/mL) of: ≧2) was 5 µg/mL. For the same compound, the protein binding [6] was 95-97%, the “outcome in hollow fiber model” value [7] was “regrowth and development of resistance by 24 h and 48 h” and the “MIC values, range” value [8] was 0.06 to 32 µg/mL.
Compound `Cc1onc(-c2ccccc2)c1C(=O)N[C@@H]1C(=O)N2[C@@H]1SC(C)(C)[C@@H]2C(=O)O` [Oxacillin] has an Additive (WT isolates [9]) of 1, an Antagonism (WT isolates [9]) of 0 and an Indeterminate (WT isolates [9]) of 1. For the same compound, the Indifferent (WT isolates [9]) was 3, the “Synergy: Complete” value (WT isolates [9]) was 0 and the “Synergy: Partial” value (WT isolates [9]) was 1.
In the case of `CO[C@H]1/C=C/O[C@@]2(C)Oc3c(C)c(O)c4c(O)c(c(/C=N/N5CCN(C)CC5)c(O)c4c3C2=O)NC(=O)/C(C)=C\C=C\[C@H](C)[C@H](O)[C@@H](C)[C@@H](O)[C@@H](C)[C@H](OC(C)=O)[C@@H]1C` [Rifampin, rifampin], the Additive (WT isolates [9]) was 1, the Antagonism (WT isolates [9]) was 0 and the Indeterminate (WT isolates [9]) was 0. The Indifferent (WT isolates [9]) was 0, the “Synergy: Complete” value (WT isolates [9]) was 0 and the “Synergy: Partial” value (WT isolates [9]) was 5.
For `CN[C@H](CC(C)C)C(=O)N[C@H]1C(=O)N[C@@H](CC(N)=O)C(=O)N[C@H]2C(=O)N[C@H]3C(=O)N[C@H](C(=O)N[C@H](C(=O)O)c4cc(O)cc(O)c4-c4cc3ccc4O)[C@H](O)c3ccc(c(Cl)c3)Oc3cc2cc(c3O[C@@H]2O[C@H](CO)[C@@H](O)[C@H](O)[C@H]2O[C@H]2C[C@](C)(N)[C@H](O)[C@H](C)O2)Oc2ccc(cc2Cl)[C@H]1O` [Vancomycin], the Additive (WT isolates [9]) was 2, the Antagonism (WT isolates [9]) was 0 and the Indeterminate (WT isolates [9]) was 0. The Indifferent (WT isolates [9]) was 4, the “Synergy: Complete” value (WT isolates [9]) was 0 and the “Synergy: Partial” value (WT isolates [9]) was 0.
`CCC[C@@H]1C[C@@H](C(=O)N[C@@H]([C@H]2O[C@H](SC)[C@H](O)[C@@H](O)[C@H]2O)[C@H](C)Cl)N(C)C1` [clindamycin] showed a resistance rates [10] of 30.9% and a R rate (S. aureus [5]) of 28.5%.
Work on `CC[C@H]1OC(=O)[C@H](C)[C@@H](O[C@H]2C[C@@](C)(OC)[C@@H](O)[C@H](C)O2)[C@H](C)[C@@H](O[C@@H]2O[C@H](C)C[C@H](N(C)C)[C@H]2O)[C@](C)(O)C[C@@H](C)C(=O)[C@H](C)[C@@H](O)[C@]1(C)O` [erythromycin] yielded a resistance rates [10] of 52.1% and a R rate (S. aureus [5]) of 52.0%.
In the case of `C[C@H]1COc2c(N3CCN(C)CC3)c(F)cc3c(=O)c(C(=O)O)cn1c23` [levofloxacin], the Additive (WT isolates [9]) was 0, the Antagonism (WT isolates [9]) was 0 and the Indeterminate (WT isolates [9]) was 2. The Indifferent (WT isolates [9]) was 4, the “Synergy: Complete” value (WT isolates [9]) was 0 and the “Synergy: Partial” value (WT isolates [9]) was 0.
Compound gentamicin has an Additive (WT isolates [9]) of 3, an Antagonism (WT isolates [9]) of 0 and an Indeterminate (WT isolates [9]) of 0. For the same compound, the Indifferent (WT isolates [9]) was 1, the “Synergy: Complete” value (WT isolates [9]) was 1 and the “Synergy: Partial” value (WT isolates [9]) was 1.

— patent US8450300B2 (priority 2009, dated 2013)
